Assay results published in patent publication US20250313563A1, “GLYCOGEN SYNTHASE KINASE 3 INHIBITORS AND USES THEREOF” (The Broad Institute, Inc., priority 2022, published 2025).
Read-outs that look alike come from different tables or passages of the source.

Key:
[1] = target: GSK3α (GST-full length GSK3α) (Homo sapiens (Human), UniProt P49840); assay: GSK3α TR-FRET kinase assay; assay type: biochemical
Summary of the method: (§1)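 Full-length GST-tagged human enzyme (1 nM) is exposed to test compound for 30 min before substrates are added. Phosphorylation of a primed biotinylated glycogen synthase peptide proceeds 100 min at room temperature at low ATP (4 μM α; 2 μM β) or high ATP (1 mM). Product is quantified by TR-FRET.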

[2] = target: GSK3b (GST-full length GSK3b) (Homo sapiens (Human), UniProt P49841); assay: GSK3b TR-FRET kinase assay; assay type: biochemical
Summary of the method: as §1

[3] = 1 nM GSK3α, 4 μM ATP, 30 minute preincubation, Table 16, read-out: GSK3-A TR-FRET BIOCHEMICAL (TR-FRET), IC50
[4] = 1 nM GSK3b, 2 μM ATP, 30 minute preincubation, Table 16, read-out: GSK3-B TR-FRET BIOCHEMICAL (TR-FRET), IC50
[5] = read-out: GSK3-A (TR-FRET 1 mM ATP), GMean, IC50, 1 mM ATP, geometric mean
[6] = read-out: GSK3-B (TR-FRET 1 mM ATP), GMean, IC50, 1 mM ATP, geometric mean
[7] = 1 nM GSK3α, 4 μM ATP, 30 minute preincubation, Table 16, read-out: GSK3-A TR-FRET BIOCHEMICAL (TR-FRET)
[8] = 1 nM GSK3b, 2 μM ATP, 30 minute preincubation, Table 16, read-out: GSK3-B TR-FRET BIOCHEMICAL (TR-FRET)
[9] = GSK3-A (TR-FRET 1 mM ATP), GMean, IC50, 1 mM ATP, geometric mean
[10] = GSK3-B (TR-FRET 1 mM ATP), GMean, IC50, 1 mM ATP, geometric mean

GSK3b (GST-full length GSK3b), sequence (P49841 whole entry): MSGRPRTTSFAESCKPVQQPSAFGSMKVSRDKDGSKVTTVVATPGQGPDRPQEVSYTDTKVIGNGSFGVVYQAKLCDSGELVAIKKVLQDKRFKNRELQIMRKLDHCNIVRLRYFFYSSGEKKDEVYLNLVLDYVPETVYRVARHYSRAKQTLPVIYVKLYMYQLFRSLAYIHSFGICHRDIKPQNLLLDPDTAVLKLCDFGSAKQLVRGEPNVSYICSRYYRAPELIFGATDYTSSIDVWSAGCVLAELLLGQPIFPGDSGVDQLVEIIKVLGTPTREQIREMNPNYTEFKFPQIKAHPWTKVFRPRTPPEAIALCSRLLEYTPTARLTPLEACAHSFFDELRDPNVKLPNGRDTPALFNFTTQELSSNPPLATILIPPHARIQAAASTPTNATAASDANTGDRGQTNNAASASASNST
GSK3α (GST-full length GSK3α), sequence (P49840 whole entry): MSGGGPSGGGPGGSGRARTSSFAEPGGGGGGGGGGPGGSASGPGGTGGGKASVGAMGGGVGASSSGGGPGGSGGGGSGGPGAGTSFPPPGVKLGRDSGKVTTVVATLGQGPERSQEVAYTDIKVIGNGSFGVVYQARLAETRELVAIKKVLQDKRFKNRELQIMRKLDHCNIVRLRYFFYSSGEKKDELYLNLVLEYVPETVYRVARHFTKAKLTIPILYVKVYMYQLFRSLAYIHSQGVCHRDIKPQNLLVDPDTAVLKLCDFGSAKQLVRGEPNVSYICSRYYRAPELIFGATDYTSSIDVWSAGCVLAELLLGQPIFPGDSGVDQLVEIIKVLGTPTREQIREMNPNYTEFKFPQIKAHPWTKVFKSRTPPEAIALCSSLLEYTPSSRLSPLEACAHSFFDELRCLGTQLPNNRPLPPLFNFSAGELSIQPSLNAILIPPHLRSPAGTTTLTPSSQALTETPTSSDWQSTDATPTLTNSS

**Q.** Which results are given for `CCC1(c2cccc(-c3ccnc4c3CCC4)c2)C2=C(CC(C)(C)C2=O)Nc2n[nH]cc21` (centres unmarked) [Compound 952557]?
**A.** IC50 [1, 3]: ≤ 0.1 µM; IC50 [2, 4]: 0.1 to 1 µM

**Q.** With `CCc1cc(-c2cccc([C@@]3(CC)C4=C(CC(C)(C)NC4=O)Nc4n[nH]cc43)c2)n(C)n1` [Compound 952561] as the molecule, how does the IC50 [1, 3] read?
**A.** 0.1 to 1 µM

**Q.** And the IC50 [2, 4]?
**A.** 0.1 to 1 µM

**Q.** For `CC[C@]1(c2cccc(-c3c(F)cncc3OC)c2)C2=C(CC(C)(C)C2=O)Nc2n[nH]cc21` [Compound 952562], which IC50 [1, 3] is on record?
**A.** 1 to 5 µM

**Q.** What about the IC50 [2, 4] of the same molecule?
**A.** > 5 µM

**Q.** `CC[C@]1(c2cccc(-c3cc(C)nc4c3cnn4C)c2)C2=C(CC(C)(C)NC2=O)Nc2n[nH]cc21` [Compound 952563] was tested. Which IC50 [1, 3] did it give?
**A.** 1 to 5 µM

**Q.** And the IC50 [2, 4]?
**A.** > 5 µM

**Q.** How did the IC50 [1, 3] turn out when `CC[C@@]1(c2cccc(-c3c(F)cncc3OC)c2)C2=C(CC(C)(C)C2=O)Nc2n[nH]cc21` [Compound 952564] was run?
**A.** ≤ 0.1 µM

**Q.** And the IC50 [1, 5]?
**A.** 0.1 to 1 µM

**Q.** What about the IC50 [2, 4] of the same molecule?
**A.** ≤ 0.1 µM

**Q.** What about the IC50 [2, 6] of the same molecule?
**A.** 1 to 5 µM

**Q.** What does the source list for `CC[C@]1(c2cccc(-c3cnn4ccncc34)c2)C2=C(CC(C)(C)NC2=O)Nc2n[nH]cc21` [Compound 952565]?
**A.** IC50 [1, 3]: ≤ 0.1 µM; IC50 [1, 5]: 1 to 5 µM; IC50 [2, 4]: 0.1 to 1 µM; IC50 [2, 6]: > 5 µM

**Q.** How did the IC50 [1, 3] turn out when `CCC1(c2cccc(-c3cnn(-c4ccccn4)c3)c2)C2=C(CC(C)(C)NC2=O)Nc2n[nH]cc21` (centres unmarked) [Compound 952566] was run?
**A.** 0.1 to 1 µM

**Q.** And the IC50 [1, 5]?
**A.** > 5 µM

**Q.** And the IC50 [2, 4]?
**A.** 1 to 5 µM

**Q.** And the IC50 [2, 6]?
**A.** > 5 µM

**Q.** Which IC50 [1, 3] does the source give for `CC[C@@]1(c2cccc(C(F)(F)F)c2)C2=C(CCN(c3ccsc3)C2=O)Nc2n[nH]cc21` [Compound 952630] here?
**A.** ≤ 0.1 µM

**Q.** And the IC50 [2, 4]?
**A.** 0.1 to 1 µM

**Q.** How did the IC50 [1, 3] turn out when `CC[C@]1(c2cccc(C(F)(F)F)c2)C2=C(CCN(c3ccsc3)C2=O)Nc2n[nH]cc21` [Compound 952636] was run?
**A.** > 5 µM

**Q.** And the IC50 [2, 4]?
**A.** > 5 µM

**Q.** For `CC[C@]1(c2cccc(C(F)(F)F)c2)C2=C(CCN(c3cscn3)C2=O)Nc2n[nH]cc21` [Compound 952638], which IC50 [1, 3] is on record?
**A.** > 5 µM

**Q.** And the IC50 [2, 4]?
**A.** > 5 µM

**Q.** `CCC1(c2cccc(-c3ccnc4c3CCCC4)c2)C2=C(CC(C)(C)C2=O)Nc2n[nH]cc21` (centres unmarked) [Compound 952752] was tested. Which IC50 [1, 3] did it give?
**A.** ≤ 0.1 µM

**Q.** What about the IC50 [2, 4] of the same molecule?
**A.** 0.1 to 1 µM

**Q.** `CC[C@]1(c2cccc(-c3ccnc(OC)c3Cl)c2)C2=C(CC(C)(C)NC2=O)Nc2n[nH]cc21` [Compound 952754] was tested. Which IC50 [1, 3] did it give?
**A.** ≤ 0.1 µM

**Q.** And the IC50 [2, 4]?
**A.** 0.1 to 1 µM

**Q.** Which results are given for `CC[C@]1(c2cccc(-c3ccncc3C(F)(F)F)c2)C2=C(CC(C)(C)C2=O)Nc2n[nH]cc21` [Compound 952757]?
**A.** IC50 [1, 3]: 1 to 5 µM; IC50 [2, 4]: > 5 µM

**Q.** Which results are given for `CC[C@@]1(c2cccc(-c3ccncc3C(F)(F)F)c2)C2=C(CC(C)(C)C2=O)Nc2n[nH]cc21` [Compound 952759]?
**A.** IC50 [1, 3]: ≤ 0.1 µM; IC50 [1, 5]: 0.1 to 1 µM; IC50 [2, 4]: ≤ 0.1 µM; IC50 [2, 6]: 1 to 5 µM

**Q.** `CC[C@]1(c2cccc(-c3c(C)cnc4c(C)cccc34)c2)C2=C(CC(C)(C)NC2=O)Nc2n[nH]cc21` [Compound 952760] was tested. Which IC50 [1, 3] did it give?
**A.** > 5 µM

**Q.** What about the IC50 [2, 4] of the same molecule?
**A.** > 5 µM

**Q.** What does the source list for `CC[C@]1(c2cccc(-c3ccnc4c(C)cccc34)c2)C2=C(CC(C)(C)NC2=O)Nc2n[nH]cc21` [Compound 952909]?
**A.** IC50 [1, 3]: ≤ 0.1 µM; IC50 [2, 4]: 0.1 to 1 µM

**Q.** How did the IC50 [1, 7] turn out when `CC[C@@]1(c2ccccc2)C2=C(Nc3n[nH]cc31)[C@@H](F)C(C)(C)CC2=O` [Compound 957196] was run?
**A.** > 5 µM

**Q.** What about the IC50 [2, 8] of the same molecule?
**A.** > 5 µM

**Q.** How did the IC50 [1, 7] turn out when `CC[C@@]1(c2ccccc2)C2=C(Nc3n[nH]cc31)[C@H](F)C(C)(C)CC2=O` [Compound 957197] was run?
**A.** 0.1 to 1 µM

**Q.** And the IC50 [1, 9]?
**A.** > 5 µM

**Q.** And the IC50 [2, 8]?
**A.** 1 to 5 µM

**Q.** What about the IC50 [2, 10] of the same molecule?
**A.** > 5 µM

**Q.** Which IC50 [1, 7] does the source give for `CC[C@]1(c2ccccc2)C2=C(Nc3n[nH]cc31)[C@@H](F)C(C)(C)CC2=O` [Compound 957199] here?
**A.** > 5 µM

**Q.** What about the IC50 [2, 8] of the same molecule?
**A.** > 5 µM

**Q.** `CC[C@]1(c2ccccc2)C2=C(Nc3n[nH]cc31)[C@H](F)C(C)(C)CC2=O` [Compound 957200] was tested. Which IC50 [1, 7] did it give?
**A.** 0.1 to 1 µM

**Q.** And the IC50 [1, 9]?
**A.** > 5 µM

**Q.** And the IC50 [2, 8]?
**A.** 0.1 to 1 µM

**Q.** What about the IC50 [2, 10] of the same molecule?
**A.** > 5 µM

**Q.** How did the IC50 [1, 7] turn out when `CC[C@]1(c2ccccc2)C2=C(CC(C)(C)[C@H](F)C2=O)Nc2n[nH]cc21` [Compound 957403] was run?
**A.** 0.1 to 1 µM

**Q.** And the IC50 [2, 8]?
**A.** 1 to 5 µM

**Q.** For `CC[C@]1(c2ccccc2)C2=C(CC(C)(C)[C@@H](F)C2=O)Nc2n[nH]cc21` [Compound 957404], which IC50 [1, 7] is on record?
**A.** > 5 µM

**Q.** And the IC50 [2, 8]?
**A.** > 5 µM
